Laboratory results: patent publication US7060718B2, “Arylsulfonanilide ureas” (Amgen Inc., priority 1998, dated 2006)

Tests used:
[1] = test system: HeLa cells; test: Tumor cell growth arrest in culture, Alamar Blue assay (HeLa); assay type: cell-based; conditions: Homo sapiens, concentration at which total growth inhibition occurred, 72 hours of treatment, triplicate
Method: (§1) The ability of test compounds to arrest the growth of tumor cells in culture was evaluated using HeLa cells, derived from a human cervical adenocarcinoma, and obtained from the American Type Culture Collection (ATCC, Rockville, Md.). Cells were grown in culture in the usual way. Test compounds were dosed in triplicate at concentrations ranging from 5 μM to 50 μM, and the cellular growth rate was calculated by harvesting the cells after 72 hours of treatment and measuring their metabolic activity using an Alamar Blue assay (Biosource International, Camarillo, Calif.). The degree of metabolic activity in the culture is proportional to the number of living cells. See, Ahmed et al., J. Immunol. Methods 1994, 170, 211. The change in growth rate for cells treated with test compounds was normalized to the growth of untreated cells and a plot of normalized cellular growth vs. compound concentration was made. The concentration at which total growth inhibition (TGI) occurred was determined. Compounds were similarly evaluated for cell growth inhibition using MCF-7/ ADR cells.

[2] = test system: MCF-7/ADR cells; test: Cell growth inhibition (MCF-7/ADR), evaluated similarly; assay type: cell-based; conditions: Homo sapiens, NCI/ADR-RES, concentration at which total growth inhibition occurred
Method: as §1

| Structure (SMILES) | IC (TGI) [1] | IC (TGI) [2] | melting point |
| --- | --- | --- | --- |
| COc1ccc(NS(=O)(=O)c2c(F)c(F)c(F)c(F)c2F)cc1NC(=O)N(CCO)CCO [Compound 15] | > 40 µM | > 40 µM |  |
| COc1ccc(NS(=O)(=O)c2c(F)c(F)c(F)c(F)c2F)cc1NC(=O)NCCCO [Compound 14] | 5 to 40 µM | > 40 µM |  |
| COc1ccc(NS(=O)(=O)c2c(F)c(F)c(F)c(F)c2F)cc1NC(=O)NC(CO)CO [Compound 12] | > 40 µM | > 40 µM |  |
| COc1ccc(NS(=O)(=O)c2c(F)c(F)c(F)c(F)c2F)cc1NC(=O)Nc1nccs1 [Compound 17] | > 40 µM | > 40 µM |  |
| COc1ccc(NS(=O)(=O)c2c(F)c(F)c(F)c(F)c2F)cc1NC(=O)Nc1nnn[nH]1 [Compound 19] | < 5 µM | 5 to 40 µM |  |
| COc1ccc(NS(=O)(=O)c2c(F)c(F)c(F)c(F)c2F)cc1NC(=O)n1nccc1N [Compound 7] | < 5 µM | < 5 µM | 140 to 144 °C |
| COc1ccc(NS(=O)(=O)c2c(F)c(F)c(F)c(F)c2F)cc1NC(=O)N1CCOCC1 [Compound 9] | 5 to 40 µM | 5 to 40 µM |  |
| COc1ccc(NS(=O)(=O)c2c(F)c(F)c(F)c(F)c2F)cc1NC(=O)NCCO [Compound 13] | 5 to 40 µM | > 40 µM |  |
| COc1ccc(NS(=O)(=O)c2c(F)c(F)c(F)c(F)c2F)cc1NC(=O)Nc1nncs1 [Compound 20] | 5 to 40 µM | 5 to 40 µM |  |
| COCCNC(=O)Nc1cc(NS(=O)(=O)c2c(F)c(F)c(F)c(F)c2F)ccc1OC [Compound 21] | 5 to 40 µM | > 40 µM |  |
| COc1ccc(NS(=O)(=O)c2c(F)c(F)c(F)c(F)c2F)cc1NC(=O)Nc1ccccc1 [Compound 16] | 5 to 40 µM | > 40 µM |  |
| COc1ccc(NS(=O)(=O)c2c(F)c(F)c(F)c(F)c2F)cc1NC(=O)NCC(O)CO (centres unmarked) [Compound 10] | 5 to 40 µM | 5 to 40 µM |  |
| COc1ccc(NS(=O)(=O)c2c(F)c(F)c(F)c(F)c2F)cc1NC(=O)NCc1ccco1 [Compound 8] | < 5 µM | < 5 µM | 208 °C |
| COc1ccc(NS(=O)(=O)c2c(F)c(F)c(F)c(F)c2F)cc1NC(N)=O [Compound 5] | < 5 µM | < 5 µM | 226 °C |
| COc1ccc(NS(=O)(=O)c2c(F)c(F)c(F)c(F)c2F)cc1NC(=O)NCC(N)=O [Compound 11] | > 40 µM | > 40 µM |  |
| CCOC(=O)CNC(=O)Nc1cc(NS(=O)(=O)c2c(F)c(F)c(F)c(F)c2F)ccc1OC [Compound 6] | > 40 µM | > 40 µM | 164 to 170 °C |
| COc1ccc(NS(=O)(=O)c2c(F)c(F)c(F)c(F)c2F)cc1NC(=O)n1ncnc1N [Compound 18] | < 5 µM | < 5 µM |  |
